According to patent US20050036962A1, “Compositions and method for protecting skin from UV induced immunosuppression and skin damage” (Novogen Research Pty. Ltd., priority 1997, published 2005):

How the values were obtained:
[1] = tested on: Hairless albino Sh:HR-1 mice; test: CHS reaction to oxazolone after UVB irradiation, equol/glucan lotions, Example 4; assay type: in vivo, mouse; settings: for % Suppression of CHS: 1 MED (UVB) for 3 days, equol 2.5 uM, glucan 20% in base lotion, ears measured day 15; for decreasing percentage suppression of hypersensitivity and skin fold thickness (in words): compared to the control groups
Method: The CHS reaction was carried out as in Example 2. Hairless albino Sh:HR-1 mice were divided into eight treatment groups as shown: • 1. base lotion+MED (UVB) for […] • 2. glucan (20%) in base lotion+1 MED (UVB) for 3 days • 3. Equol (2.5 uM) in base lotion+1 MED (UVB) for 3 days • 4. Equol (2.5 uM)+glucan (20%) in base lotion+1 MED (UVB) for 3 days • 5. base lotion and no irradiation for three days (Control) • 6. glucan (20%) in base lotion and no irradiation for three days (Control) • 7. Equol (2.5 uM) in base lotion and no irradiation for three days (Control) • 8. Equol (2.5 uM)+glucan (20%) in base lotion and no irradiation for three days (Control)
On days 7 and 8 the mice were sensitised with 2% oxazolone in alcohol (100 ul/mouse). On day 14, the ears were challenged with 2% oxazolone (20 ul/mouse). On day 15, the ears were measured for skin fold thickness and suppression of […] hypersensitivity.

[2] = tested on: Hairless albino Sh:HR-1 mice; test: Contact hypersensitivity (CHS) reaction to oxazolone after UV irradiation, Example 2; assay type: in vivo, mouse; settings: for % Suppression of CHS: UV-irradiated vs non-UV group, lotion 20 μM compound (glucan 10% w/w in lotion B; clover extract 0.5% w/w), topical after each daily UV; for prevention/amelioration of UV induced immunosuppression (in words): topical lotion after UV, CHS model
Excerpt: O'Dell et al (1980 Arch. Dermatol, 116, 559-561) have shown that sun-exposed skin areas on humans are immunologically impaired according to non-exposed skin. A standard model for testing immunosuppression, that is a model with reference to human immunosuppression, is the hairless mouse. A standard test in the hairless mouse model is the contact hypersensitivity (CHS) reaction to an immune irritant such as oxazolone (Asherson and Ptak, Immunology, (1968) 15:405-416). The compound oxazolone induces a vigorous immune response in the hairless mouse which may be measured by ear swelling. Immune suppression by UV light or other agents can be readily tested in the model. See for example Kondo, S, McKenzie, R. C., Sauder, D. N., J. Invest. Dermatol., 103:811-814; Reeve et al, Cancer Letts., 108:271-279 (1996); and Reeve et al, J. Invest. Dermatol., 103:801-806 (1994). As will be shown in the non-limiting examples which follow, compositions comprising compounds of the Formula (I) were active in the treatment/prevention/amelioration of UV induced immunosuppression in the hairless mouse model, which as discussed above is directly referable to the situation in human skin, for example, Yoshikawa et al, J. Invest. Dermatol., 95:530-536, (1990).
The CHS reaction in mice is a standard model for immunosuppression and is a representative model for human immunosuppression (Yoshikawa et al, Invest. Dermatol., 95:530-536 (1990)).
(§1) The CHS reaction was carried out according to the protocol of Reeve et al, Immunology, 78:99-104 (1993). Hairless albino Sh:HR-1 mice were divided into two treatment groups. The first treatment group designated group 1 was not subject to UV irradiation, and received either 0.2 ml of test lotion “A” or test lotion ‘B’ painted on to the dorsal skin on four consecutive days (that is, 4 μmol/mouse, or approximately 0.1 μmol/cm^2). The second treatment group, group 2, were UV irradiated with a minimal erythemal dose of UV light which simulates the toxic effect of sunlight on the skin. After each daily UV treatment 0.2 ml of treatment solution was applied to the dorsal skin as for treatment group 1. Mid-dorsal skinfold thickness was measured every twenty four hours to indicate erythema oedema. CHS to oxazolone was induced on abdominal skin seven days after the first treatment followed by challenge on the ears on day 15, and average ear swelling was determined as a measure of immune response.
Genistein, daidzein, equol, tetrahydrodaidzein, ODMA, dehydroequol and clover extract were tested in this experiment in test lotion “A”. Equol, genistein and clover extract were also tested in tes lotion ‘B’. The results expressed below are given as a percentage of suppression of CHS measured with reference to the non-UV exposed treatment group 1, which is induced by UV exposure.

[3] = tested on: Hairless albino Sh:HR-1 mice; test: Mid-dorsal skinfold thickness (erythema/oedema) after UV irradiation, Example 2; assay type: in vivo, mouse; settings: for average skin fold increase / negative average skin fold increase: seven days after treatment; for average skin fold increase: one unit = 0.001 in, test lotion A; for negative average skin fold increase: given as a negative increase, substantially no increase in skin fold thickness; for erythema/oedema (in words): measured at day four and day seven
Method: as §1
Erythema/oedema was measured at day four and day seven of the treatment groups. […] For example, at seven days after treatment for base lotion “A” average skin fold thickness was six units (that is 0.006 in), for the daidzein containing lotion average skin fold increase was seven units, and for tetrahydrodaidzein average skin fold thickness was five units. In contrast, for equol, genistein, dehydroequol and ODMA there was a negative average skin fold increase of approximately 0.2, which corresponds to substantially no increase in skin fold thickness.

[4] = tested on: Human subjects; test: Erythema intensity at UV-irradiated skin sites on the back, post-UV topical lotion, Example 3; assay type: in vivo; settings: UV + lotion with 100 μM equol
Method: Tests were performed at the Australian Photobiology Testing Facility at the University of Sydney. Human subjects were tested in a controlled solarium. A grid was established using reference coordinate points on the back of each subject, thereby providing a series of treatment sites on the back of each patient where the erythema-reducing potential of compositions according to the invention could be tested.
Compounds of the Formula (I) were dissolved in DMSO and incorporated into base lotion “A” to contain 100 μM of active ingredient, and 0.5% DMSO.
Topical applications were made to the back of the patient within the treatment grid which was established to provide a series of sites for UV irradiation, and subsequent application of compositions. Topical application consisted of 2 mg/cm^2 lotion applied firmly, followed by a second 2 mg/cm^2 applied but not rubbed in. Each topical treatment was therefore 0.4 nmols/cm^2 compound in the Formula (I).
The treatment procedure was as follows. On the first day of treatment a minimum erythemal dose of UV (MED) was established for each subject, this being the minimum degree of UV light which on visual determination produces a reddening of the skin. […] The first treatment day was a Monday. Subsequent treatments were as follows:
Expose 3×3 skin sites to 0.75 MED UV.
Immediately, at four hours and at six hours post-UV, • 1 apply nil to three sites • 2 apply topical base lotion to three sites • 3 apply topical equol lotion to three sites according to technique above. Wednesday
Assess erythema (none visible as expected).
Re-expose same 3×3 skin sites to 0.75 MED UV.
Immediately, at four hours and at six hours post-UV, apply topical lotions as above.
Assess erythema visually by ranking the colour intensity of the 3×3 skin sites.
Re-expose same 3×3 skin sites to one MED UV.
Topical applications as before

| Compound | % Suppression of CHS ([2]; 18 hours of ear challenge) | % Suppression of CHS ([2]; 21 hours of ear challenge) | prevention/amelioration of UV induced immunosuppression (in words) [2] | negative average skin fold increase [3] | also measured |
| --- | --- | --- | --- | --- | --- |
| β-(1,3)(1,6)-glucan [Glucan only] |  |  |  |  | % Suppression of CHS [1]: 4.5%; decreasing percentage suppression of hypersensitivity and skin fold thickness (in words) [1]: effective |
| O=c1c(-c2ccc(O)cc2)coc2cc(O)ccc12 [Daidzein, daidzein] | 27% | 37% | did not ameliorate |  | average skin fold increase [3]: seven |
| CC(C(=O)c1ccc(O)cc1O)c1ccc(O)cc1 (stereo not drawn) [ODMA, O-desmethyl-angolensin] |  |  |  | approximately 0.2 |  |
| Oc1ccc(C2COc3cc(O)ccc3C2O)cc1 (stereo not drawn) [tetrahydrodaidzein] | 33% | 31% | did not ameliorate |  | average skin fold increase [3]: five |
| Oc1ccc(C2=Cc3ccc(O)cc3OC2)cc1 [dehydroequol] | 10% | 4% | significant activity | approximately 0.2 |  |
| Oc1ccc([C@H]2COc3cc(O)ccc3C2)cc1 [Equol, equol] | 12% | 5% | significant activity | approximately 0.2 | erythema/oedema (in words) [3]: suppressed erythema/oedema; Average erythema intensity (n = 3) ([4]; 48 hours, 0.4 nmols/cm^2 per application): 0.21; Average erythema intensity (n = 3) ([4]; 52 hours): 0.21; Average erythema intensity (n = 3) ([4]; 55.5 hours): 0.67; Average erythema intensity (n = 3) ([4]; 71 hours): 0.67; Average erythema intensity (n = 3) ([4]; 75 hours): 0.38; Average erythema intensity (n = 3) ([4]; 77 hours): 0.54; % Suppression of CHS [1]: 6%; decreasing percentage suppression of hypersensitivity and skin fold thickness (in words) [1]: effective |
| O=c1c(-c2ccc(O)cc2)coc2cc(O)cc(O)c12 [Genistein, genistein] | 14% | 13% | significant activity | approximately 0.2 | erythema/oedema (in words) [3]: suppressed erythema/oedema |
